The source of these data is patent publication US20120251551A1, “Substituted (Heteroarylmethyl)thiohydantoins” (BAYER PHARMA AKTIENGESELLSCHAFT, priority 2009, published 2012).

Changes are numbered by the printed parent chain.

Data set [1] concerns the target T1, human androgen receptor W741L mutant (Homo sapiens, UniProt P10275, W742L).
T1 construct: expressed in transfected cells; host or cells: PC-3 cells, transient transfection with a pSG5-derived plasmid
T1 sequence (P10275 1-920 W742L): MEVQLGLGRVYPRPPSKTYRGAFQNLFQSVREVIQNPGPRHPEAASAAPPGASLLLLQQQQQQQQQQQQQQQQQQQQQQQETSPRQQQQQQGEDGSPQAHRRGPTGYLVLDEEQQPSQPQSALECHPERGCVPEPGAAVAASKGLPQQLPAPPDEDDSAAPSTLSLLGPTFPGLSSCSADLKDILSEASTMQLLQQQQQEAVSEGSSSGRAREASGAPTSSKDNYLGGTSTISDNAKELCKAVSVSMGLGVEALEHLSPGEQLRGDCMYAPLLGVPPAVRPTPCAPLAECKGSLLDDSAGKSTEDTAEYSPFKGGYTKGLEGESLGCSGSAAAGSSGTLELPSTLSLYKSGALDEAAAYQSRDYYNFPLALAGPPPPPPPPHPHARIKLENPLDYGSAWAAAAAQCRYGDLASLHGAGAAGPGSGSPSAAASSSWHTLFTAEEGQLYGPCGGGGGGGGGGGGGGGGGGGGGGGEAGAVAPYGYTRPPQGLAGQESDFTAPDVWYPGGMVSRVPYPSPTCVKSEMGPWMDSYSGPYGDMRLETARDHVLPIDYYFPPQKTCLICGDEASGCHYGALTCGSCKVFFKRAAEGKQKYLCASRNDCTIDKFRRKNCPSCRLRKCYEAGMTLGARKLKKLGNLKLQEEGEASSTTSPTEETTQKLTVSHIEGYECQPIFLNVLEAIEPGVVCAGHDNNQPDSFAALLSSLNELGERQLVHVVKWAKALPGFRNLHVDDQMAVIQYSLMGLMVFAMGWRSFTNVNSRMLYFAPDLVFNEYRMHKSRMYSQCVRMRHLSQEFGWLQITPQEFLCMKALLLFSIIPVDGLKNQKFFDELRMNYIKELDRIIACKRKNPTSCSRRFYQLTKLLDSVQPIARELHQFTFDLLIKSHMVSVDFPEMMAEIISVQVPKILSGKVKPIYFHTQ
The data set is described as follows: Cell-based transactivation assay for human androgen receptor mutant W741L.

Data set [2] in a line: Determination of metabolic stability in vitro (calculation of hepatic in vivo blood clearance). In kind it is in vitro ADME. The settings on record: pH 7.4, human liver microsomes, calculated from half-life, read-out: calculated hepatic in vivo blood clearance (CL) (converted). On the procedure: Determination of Metabolic Stability In Vitro (Including Calculation of Hepatic In Vivo Blood Clearance (CL) and of Maximal Oral Bioavailability (Fmax))
The metabolic stability of test compounds in vitro was determined by incubating them at 1 μM with a suspension of human liver microsomes in 100 mM phosphate buffer, pH7.4 (NaH2PO4×H2O+Na2HPO4×2H2O) at a protein concentration of 0.5 mg/ml and at 37° C. The reaction was activated by adding a co-factor mix containing 1.2 mg NADP, 3 IU glucose-6-phosphate dehydrogenase, 14.6 mg glucose-6-phosphate and 4.9 mg MgCl2 in phosphate buffer, pH 7.4. Organic solvent in the incubations was limited to <0.2% dimethylsulfoxide (DMSO) and <1% methanol. During incubation, the microsomal suspensions were continuously shaken and aliquots were taken at 2, 8, 16, 30, 45 and 60 min, to which equal volumes of cold methanol were immediately added. Samples were freezed at −20° C. over night, subsequently centrifuged for 15 minutes at 3000 rpm and the supernatant was analyzed with an Agilent 1200 HPLC-system with LCMS/MS detection.
The half-life of a test compound was determined from the concentration-time plot. From the half-life the intrinsic clearances were calculated. Together with the additional parameters liver blood flow, specific liver weight and microsomal protein content the hepatic in vivo blood clearance (CL) and the maximal oral bioavailability (Fmax) were calculated for the different species. The following parameter values were used: Liver blood flow—1.3 l/h/kg human; specific liver weight—21 g/kg human; microsomal protein content—40 mg/g.
With the described assay only phase-I metabolism of microsomes is reflected, e.g. typically oxidoreductive reactions by cytochrome P450 enzymes and flavin mono-oxygenases (FMO) and hydrolytic reactions by esterases (esters and amides).

Data set [3] concerns the target T2, wild-type human androgen receptor (Homo sapiens, UniProt P10275).
T2 construct: expressed in transfected cells
T2 sequence (P10275 1-920): T1 sequence (P10275 1-920 W742L) with L742W
In words: Cell-based transactivation assay for wild-type human androgen receptor (PC-3 cells, MMTV-luciferase reporter).
Protocol: Cell-Based Transactivation Assay for Wild-Type Human Androgen Receptor
PC-3 cells (Kaighn et al., Invest. Urol. 17:16-23, 1979) stably transfected with the human androgen receptor (Swiss-Prot Acc. No. P10275, Entry Version 159, Sequence Version 2) and a reporter plasmid based on pGL4.14 (#E6691, Promega Corporation, Madison, Wis., USA) containing the MMTV promoter (Cato et al., EMBO J. 6:363-8, 1987) were used. They were grown in 5% charcoal-stripped medium and seeded at a concentration of 1000 cells per well in a 384-well plate. For determination of antagonistic activity, the plate additionally contained the compound to be tested at a concentration range varying from 5.12×10^−12 to 1×10^−5 M. The assay was performed in presence of 1×10^−10 R1881 (also known as methyltrienolone). After overnight incubation at 37° C. in a 5% CO2 atmosphere, 15 μl of Steady Glo Lysis and Detection reagent (Steady Glo Luciferase assay system E2550 from Promega Corporation. Madison, Wis., USA) were added. IC50 was calculated for anti-androgenic activity as well as percentage inhibition in presence of 2 μM compound in comparison to non-stimulated luciferase signal. Agonistic activity was determined using the same concentration range of compound in the absence of R1881 by measuring Luciferase activity as above. EC50 was calculated for androgenic activity. Assay/read plates were used (Polystyrol; 384, NV-white cell culture plates; Perkin Elmer).

For a further data set, the system named is LNCaP cells. The data set is described as follows: Proliferation assay with LNCaP cells. In kind it is cell-based. The conditions noted are these: Homo sapiens, 168 h, R1881 (1×10^−10) stimulated growth, day 7, read-out: inhibition IC50 (LNCaP). On the procedure:
Proliferation Assay with LNCaP Cells
LNCaP cells (Horoszewicz et al., in “Models for Prostate Cancer” (ed. G. P. Murphy), Alan R. Liss, New York 1981, p. 115-132; Horoszewicz et al., Cancer Res. 43:1809-1818, 1983) were seeded at 2000 cells/well in 96-well plates in RPMI (F1235, Biochrom AG, Berlin, Germany) without phenol red supplemented with 5% charcoal-stripped serum. After 3 days, the cells were treated with R1881) (1×10^−10) and compound (day 0). Cell number was determined by Alamar Blue (DAL1100, Invitrogen, Life Technologies, Lohne, Germany) staining (2.5 h) at day 0 and day 7. Fluorescence was determined in Victor3 (Excitation 530 nm; emission 590 nm). Stimulated growth was defined as the signal measured at day 7 for cells treated only with R1881. Basal level was defined as the signal measured at day 7 for cells grown without R1881.

With `Cn1cc(-c2ccc(CN3C(=S)N(c4ccc(C#N)c(C(F)(F)F)c4)C(=O)C3(C)C)cn2)cn1` [Example 18, 4-(4,4-Dimethyl-3-{[6-(1-methyl-1H-pyrazol-4-yl)pyridin-3-yl]methyl}-5-oxo-2-thioxoimidazolidin-1-yl)-2-(trifluoromethyl)benzonitrile], the IC50 in data set [1] was found to be 94.6 nM; with LNCaP cells, 117 nM. Besides, the CLhep predicted at 1 µM in data set [2] was 1.83 mL/min/kg. Further, in data set [3], the concentration giving a half-maximal response (EC50) came to 9570 nM.
